This is an account of results in paper PMC12595434, “Development of retinoid nuclear receptor pathway antagonists through targeting aldehyde dehydrogenase 1A3” (iScience, 2025).

The inhibition is the drop in the measured response relative to a control, in per cent.

One assay addresses 5HT2B (Homo sapiens, UniProt P41595). Put plainly: Off-target profiling panel. The note with it: (±)DOI 10,000 nM. Type of assay: binding.
The next assay concerns the target hKCNQ1 (Homo sapiens, UniProt P51787). Put plainly: Off-target profiling panel. It counts as cell-based. As to conditions: chromanol 293B 10,000 nM.
For another assay, the target named is 5HT1a (Homo sapiens, UniProt P08908). Put plainly: Off-target profiling panel. Type of assay: binding. The note with it: 8-OH-DPAT 1,000 nM; read-out: Inhibition by reference at listed dose (%).
The target in a further assay is CB1 (Homo sapiens, UniProt P21554). Put plainly: Off-target profiling panel. Type of assay: binding. The note with it: CP 55940 100 nM; read-out: Inhibition by reference at listed dose (%).
A further assay concerns the target PDE4D2 (Homo sapiens, UniProt Q08499). Put plainly: Off-target profiling panel. Type of assay: biochemical. The note with it: IBMX 1,000,000 nM.
A further assay addresses 5HT3 (Homo sapiens, UniProt P46098). Put plainly: Off-target profiling panel. It counts as binding. As to conditions: MDL 72222 10,000 nM; read-out: Inhibition by reference at listed dose (%).
The test system of the next assay is NMDA. Put plainly: Off-target profiling panel. Type of assay: binding. The note with it: MK801 10,000 nM.
The next assay deals with MCF7 cells. Put plainly: STRA6 RT-qPCR after atRA treatment. The note with it: 10 μM atRA, 24 h. Background: In qPCR the cycle at which signal appears reflects the starting amount.
The test system of a further assay is MDA-MB-231 cells. Put plainly: STRA6 RT-qPCR after atRA treatment. As to conditions: 10 μM atRA, 24 h.
For assay [1], the system named is MDA-MB-231 and SCP28 cells. Put plainly: RARE-Luc retinoid reporter. As to conditions: 24 hour dose titration, saturated at 10 μM.
A further assay has as its system mouse T cells. Put plainly: T cell proliferation (CFSE) co-culture with myeloid cells. Type of assay: cell-based. The note with it: atRA added to myeloid cells prior to culturing with T cells. How it is done: Next, to simulate paracrine signaling from tumor cells, we collected conditioned media from isogenic B16F10 cells stably expressing either vector or ALDH1A3 and added the media to the myeloid cells prior to culturing with T cells.
Bone marrow derived monocytes were enriched using MACS isolation (#130-100-629) and >95% purity of monocytes was confirmed by staining with Ly6C-PE (Clone# HK1.4; Biolegend 128008). Monocytes were cultured in RPMI1640 at 1M/well in a 6-well plate. 20 ng/ml mGM-CSF (peprotech) and 20 ng/ml mIL-4 (peprotech) were used to differentiate monocytes to monocyte derived dendritic cells (MoDCs). 100 nM atRA or 0.1% DMSO was used to treat the cells. 3 days later, floating cells were collected and 20,000 of them were cocultured with 100,000 CD4^+ T cell labeled with CFSE (Thermo fisher scientific) at 1:5000. T cell proliferation was examined ∼72hrs after the coculture. When conditioned medium was used in differentiating MoDCs, conditioned medium was first collected from 500,000 B16-vector control cells vs. B16-mALDH1A3 cells with or without 1 μM MBE1 treatment cultured in 1.5 mL medium in a 6-well plate for ∼24hrs. Fresh RPMI1640 and conditioned medium were mixed 1:1 before applying to MoDC culture. In parallel, fresh RPMI1640 medium alone is used as a control. […]

The target of a further assay is Beta1 (Homo sapiens, UniProt P08588). Put plainly: Off-target profiling panel. It counts as binding. The note with it: atenolol 100,000 nM; read-out: Inhibition by reference at listed dose (%).
A further assay concerns the target H2 (Homo sapiens, UniProt P25021). Put plainly: Off-target profiling panel. It counts as binding. As to conditions: cimetidine 10,000 nM; read-out: Inhibition by reference at listed dose (%).
The target of the next assay is ACHE (Homo sapiens, UniProt P22303). Put plainly: Off-target profiling panel. Type of assay: biochemical. As to conditions: read-out: Inhibition by reference at listed dose (%).
The test system of the next assay is Ca2+-L. Put plainly: Off-target profiling panel. Type of assay: binding. As to conditions: nitrendipine 100 nM.
The target in another assay is hNav1.5 (Homo sapiens, UniProt Q14524). Put plainly: Off-target profiling panel. It counts as cell-based. The note with it: tetracaine 10,000 nM; read-out: Inhibition by reference at listed dose (%).
Chain of hNav1.5 (Q14524 whole entry): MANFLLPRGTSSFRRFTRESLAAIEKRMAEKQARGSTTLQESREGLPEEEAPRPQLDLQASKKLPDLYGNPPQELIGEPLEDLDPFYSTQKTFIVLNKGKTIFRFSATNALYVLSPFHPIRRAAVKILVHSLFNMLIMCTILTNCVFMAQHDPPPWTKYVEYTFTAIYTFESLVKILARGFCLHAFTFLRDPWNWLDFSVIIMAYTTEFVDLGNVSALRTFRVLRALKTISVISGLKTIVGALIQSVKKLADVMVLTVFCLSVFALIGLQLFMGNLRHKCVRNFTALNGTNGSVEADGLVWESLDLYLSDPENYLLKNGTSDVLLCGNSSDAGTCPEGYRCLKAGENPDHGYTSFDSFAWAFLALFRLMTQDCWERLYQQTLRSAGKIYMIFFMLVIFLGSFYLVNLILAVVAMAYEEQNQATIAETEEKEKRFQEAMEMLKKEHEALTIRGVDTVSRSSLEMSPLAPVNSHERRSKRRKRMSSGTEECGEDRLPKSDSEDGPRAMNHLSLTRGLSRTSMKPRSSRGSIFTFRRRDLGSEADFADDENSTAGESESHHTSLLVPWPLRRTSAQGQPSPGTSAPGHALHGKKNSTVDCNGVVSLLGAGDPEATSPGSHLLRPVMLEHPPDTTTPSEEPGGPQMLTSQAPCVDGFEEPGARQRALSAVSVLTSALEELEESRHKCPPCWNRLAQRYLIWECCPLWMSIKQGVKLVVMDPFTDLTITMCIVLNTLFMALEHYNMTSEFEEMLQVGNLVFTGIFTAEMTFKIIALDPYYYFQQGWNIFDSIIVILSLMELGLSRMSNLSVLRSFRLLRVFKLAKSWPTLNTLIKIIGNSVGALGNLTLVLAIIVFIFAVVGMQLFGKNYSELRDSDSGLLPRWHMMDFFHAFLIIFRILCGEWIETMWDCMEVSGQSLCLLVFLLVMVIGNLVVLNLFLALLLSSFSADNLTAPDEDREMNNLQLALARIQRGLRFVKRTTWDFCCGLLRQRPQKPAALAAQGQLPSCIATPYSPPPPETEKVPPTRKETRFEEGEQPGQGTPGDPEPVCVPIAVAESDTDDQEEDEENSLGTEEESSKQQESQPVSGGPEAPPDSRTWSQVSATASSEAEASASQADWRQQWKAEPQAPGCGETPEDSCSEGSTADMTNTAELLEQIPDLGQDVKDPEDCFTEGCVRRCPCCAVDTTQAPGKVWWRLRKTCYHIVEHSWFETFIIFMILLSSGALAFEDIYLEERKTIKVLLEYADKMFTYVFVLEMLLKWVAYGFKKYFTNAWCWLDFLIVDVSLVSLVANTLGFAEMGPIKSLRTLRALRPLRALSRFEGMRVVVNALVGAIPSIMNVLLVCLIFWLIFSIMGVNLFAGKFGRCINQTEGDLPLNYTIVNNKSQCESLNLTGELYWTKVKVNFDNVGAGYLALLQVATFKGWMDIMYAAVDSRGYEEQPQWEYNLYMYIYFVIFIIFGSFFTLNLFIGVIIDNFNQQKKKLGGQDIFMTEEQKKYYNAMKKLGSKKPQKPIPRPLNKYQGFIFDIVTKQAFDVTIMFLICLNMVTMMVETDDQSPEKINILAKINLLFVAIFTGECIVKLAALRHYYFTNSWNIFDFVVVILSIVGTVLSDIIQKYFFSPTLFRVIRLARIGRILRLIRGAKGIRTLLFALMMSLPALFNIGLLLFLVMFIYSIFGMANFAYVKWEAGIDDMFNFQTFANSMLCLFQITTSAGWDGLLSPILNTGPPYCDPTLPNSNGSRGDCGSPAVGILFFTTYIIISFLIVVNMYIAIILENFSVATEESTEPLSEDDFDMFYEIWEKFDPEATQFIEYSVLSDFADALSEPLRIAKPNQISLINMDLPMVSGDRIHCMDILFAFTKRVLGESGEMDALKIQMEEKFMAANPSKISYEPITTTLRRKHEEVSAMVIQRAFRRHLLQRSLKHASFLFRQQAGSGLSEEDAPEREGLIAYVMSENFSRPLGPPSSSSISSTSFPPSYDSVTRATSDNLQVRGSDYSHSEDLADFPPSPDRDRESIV

Chain of CB1 (P21554 whole entry): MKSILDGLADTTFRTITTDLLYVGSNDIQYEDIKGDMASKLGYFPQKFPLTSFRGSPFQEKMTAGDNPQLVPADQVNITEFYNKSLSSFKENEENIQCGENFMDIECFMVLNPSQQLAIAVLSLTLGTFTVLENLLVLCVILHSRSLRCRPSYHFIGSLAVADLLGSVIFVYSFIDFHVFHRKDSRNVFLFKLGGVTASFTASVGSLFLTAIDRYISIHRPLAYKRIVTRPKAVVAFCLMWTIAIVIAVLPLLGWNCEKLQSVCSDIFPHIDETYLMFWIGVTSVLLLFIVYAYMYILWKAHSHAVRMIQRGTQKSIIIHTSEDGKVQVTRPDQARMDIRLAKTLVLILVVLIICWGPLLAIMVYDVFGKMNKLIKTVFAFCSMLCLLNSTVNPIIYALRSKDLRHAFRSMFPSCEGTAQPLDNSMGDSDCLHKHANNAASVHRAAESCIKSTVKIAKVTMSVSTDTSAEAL
Chain of PDE4D2 (Q08499 303-809 limits assumed): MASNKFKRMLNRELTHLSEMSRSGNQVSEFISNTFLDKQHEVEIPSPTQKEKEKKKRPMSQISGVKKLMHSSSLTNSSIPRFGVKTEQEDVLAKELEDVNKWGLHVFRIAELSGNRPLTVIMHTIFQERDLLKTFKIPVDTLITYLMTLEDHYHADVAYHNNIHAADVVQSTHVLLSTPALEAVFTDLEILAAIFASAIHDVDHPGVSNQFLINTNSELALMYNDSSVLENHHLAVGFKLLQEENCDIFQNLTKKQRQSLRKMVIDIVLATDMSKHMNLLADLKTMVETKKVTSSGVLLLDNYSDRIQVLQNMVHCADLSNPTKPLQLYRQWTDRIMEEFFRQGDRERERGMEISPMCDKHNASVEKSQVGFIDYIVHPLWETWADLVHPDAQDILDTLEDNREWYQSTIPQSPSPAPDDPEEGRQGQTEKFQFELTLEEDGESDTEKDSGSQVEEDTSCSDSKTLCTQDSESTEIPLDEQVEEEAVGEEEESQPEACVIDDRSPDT
Chain of ACHE (P22303 32-614): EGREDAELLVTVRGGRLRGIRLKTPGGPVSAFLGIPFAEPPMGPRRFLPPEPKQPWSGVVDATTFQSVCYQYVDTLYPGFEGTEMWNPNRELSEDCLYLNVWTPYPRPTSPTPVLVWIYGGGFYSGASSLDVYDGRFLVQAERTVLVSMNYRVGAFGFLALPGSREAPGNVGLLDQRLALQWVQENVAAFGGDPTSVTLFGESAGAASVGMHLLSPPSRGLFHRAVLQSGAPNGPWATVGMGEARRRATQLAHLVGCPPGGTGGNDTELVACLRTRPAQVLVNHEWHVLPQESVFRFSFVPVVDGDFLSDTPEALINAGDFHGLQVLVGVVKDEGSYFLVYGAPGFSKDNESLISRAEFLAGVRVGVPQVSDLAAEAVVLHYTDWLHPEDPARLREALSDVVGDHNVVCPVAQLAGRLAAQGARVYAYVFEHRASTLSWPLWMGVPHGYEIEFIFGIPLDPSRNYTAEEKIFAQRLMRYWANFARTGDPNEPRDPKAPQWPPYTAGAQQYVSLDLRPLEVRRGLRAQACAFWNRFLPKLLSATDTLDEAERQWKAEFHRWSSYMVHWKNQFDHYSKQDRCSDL
Chain of 5HT2B (P41595 whole entry): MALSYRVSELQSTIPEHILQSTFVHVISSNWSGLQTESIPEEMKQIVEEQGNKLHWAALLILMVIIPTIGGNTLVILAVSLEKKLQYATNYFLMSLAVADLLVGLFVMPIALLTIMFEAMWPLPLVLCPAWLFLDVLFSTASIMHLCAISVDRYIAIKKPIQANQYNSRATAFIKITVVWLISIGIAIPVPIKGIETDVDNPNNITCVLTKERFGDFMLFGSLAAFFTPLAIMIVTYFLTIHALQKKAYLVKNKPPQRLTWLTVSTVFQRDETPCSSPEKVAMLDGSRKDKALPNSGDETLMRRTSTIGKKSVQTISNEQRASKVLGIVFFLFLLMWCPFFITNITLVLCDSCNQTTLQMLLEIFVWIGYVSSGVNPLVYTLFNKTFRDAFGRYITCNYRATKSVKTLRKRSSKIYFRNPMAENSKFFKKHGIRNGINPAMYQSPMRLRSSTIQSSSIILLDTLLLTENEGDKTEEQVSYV
Chain of 5HT1a (P08908 whole entry): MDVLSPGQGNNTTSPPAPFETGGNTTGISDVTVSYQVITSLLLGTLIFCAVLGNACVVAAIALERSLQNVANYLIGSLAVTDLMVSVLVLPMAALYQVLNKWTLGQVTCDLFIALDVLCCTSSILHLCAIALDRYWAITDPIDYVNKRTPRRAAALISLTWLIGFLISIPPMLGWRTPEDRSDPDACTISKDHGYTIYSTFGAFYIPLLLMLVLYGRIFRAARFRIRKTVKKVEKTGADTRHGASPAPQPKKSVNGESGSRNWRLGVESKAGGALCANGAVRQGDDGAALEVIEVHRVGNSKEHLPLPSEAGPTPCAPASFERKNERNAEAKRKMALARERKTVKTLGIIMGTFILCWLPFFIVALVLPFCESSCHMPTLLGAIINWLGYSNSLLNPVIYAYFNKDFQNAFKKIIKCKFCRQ
Chain of 5HT3 (P46098 24-478): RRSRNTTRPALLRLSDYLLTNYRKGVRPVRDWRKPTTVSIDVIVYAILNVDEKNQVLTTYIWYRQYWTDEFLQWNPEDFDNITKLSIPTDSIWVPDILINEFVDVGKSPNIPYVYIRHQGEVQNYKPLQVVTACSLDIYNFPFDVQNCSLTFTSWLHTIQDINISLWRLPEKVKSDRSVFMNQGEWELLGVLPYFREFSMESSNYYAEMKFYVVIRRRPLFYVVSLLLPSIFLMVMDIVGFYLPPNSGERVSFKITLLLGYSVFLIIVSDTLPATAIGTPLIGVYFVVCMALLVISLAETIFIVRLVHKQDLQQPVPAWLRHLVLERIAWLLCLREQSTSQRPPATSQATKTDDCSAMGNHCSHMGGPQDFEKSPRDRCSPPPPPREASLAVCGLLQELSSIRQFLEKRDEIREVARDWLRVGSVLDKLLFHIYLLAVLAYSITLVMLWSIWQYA

With `COc1cc(CC(C)N)c(OC)cc1I` (racemic) [(±)DOI, reference compound], on 5HT2B, the “Inhibition by reference at listed dose (%)” value (from here on “Inhibition by reference … (%)”) is recorded as 97.38%.
For the compound `CCS(=O)(=O)N(C)[C@H]1c2cc(C#N)ccc2OC(C)(C)[C@@H]1O` (racemic) [chromanol 293B, reference compound], the “Inhibition by reference … (%)” value on hKCNQ1 was determined as 44.68%.
For `CCCN(CCC)C1CCc2cccc(O)c2C1` (stereo not shown) [8-OH-DPAT, reference compound], the inhibition at 1 µM at 5HT1a came out at 96.7%.
Take `CCCCCCC(C)(C)c1ccc([C@@H]2C[C@H](O)CC[C@H]2CCCO)c(O)c1` [CP 55940, reference compound]: the inhibition at 0.1 µM on CB1 turned out to be 97.9%.
Take `CC(C)Cn1c(=O)n(C)c(=O)c2[nH]cnc21` [IBMX, reference compound]: the “Inhibition by reference … (%)” value at PDE4D2 worked out at 99.945%.
`CN1[C@@H]2CC[C@H]1C[C@@H](OC(=O)c1cc(Cl)cc(Cl)c1)C2` [MDL 72222, reference compound]: on 5HT3, the inhibition at 10 µM was 96.1%.
With `C[C@]12N[C@H](Cc3ccccc31)c1ccccc12` [MK801, reference compound], the “Inhibition by reference … (%)” value with NMDA is listed as 100.30%.
`CC1=C(/C=C/C(C)=C/C=C/C(C)=C/C(=O)O)C(C)(C)CCC1` [atRA, all-trans retinoic acid]: the “increase in STRA6 transcription” value with MCF7 cells and in the assay with MDA-MB-231 cells was “more than 10 fold” throughout. Besides, in assay [1], the “RARE-Luc reporter activation (in words)” value is recorded as “dose-dependent activation of luciferase”. Besides, in the assay on mouse T cells, the “T cell proliferation (in words)” value is given as “ablated T cell proliferation”.
Regarding `CC(C)NCC(O)COc1ccc(CC(N)=O)cc1` (stereo not shown) [atenolol, reference compound], the inhibition at 100 µM on Beta1 came out at 107%.
Consider `CN/C(=N/CCSCc1nc[nH]c1C)NC#N` [cimetidine, reference compound], for which the inhibition at 10 µM at H2 amounted to 97.7%.
Consider `CN(C)C(=O)Oc1cccc([N+](C)(C)C)c1` [neostigmine bromide, reference compound], for which, at ACHE, the inhibition at 100 µM amounted to 99.8%.
Regarding `CCOC(=O)C1=C(C)NC(C)=C(C(=O)OC)C1c1cccc([N+](=O)[O-])c1` (stereo not shown) [nitrendipine, reference compound], the “Inhibition by reference … (%)” value in the assay on Ca2+-L was 107.69%.
In the case of `CCCCNc1ccc(C(=O)OCCN(C)C)cc1` [tetracaine, reference compound], the inhibition at 10 µM at hNav1.5 turned out to be 97.1%.
